In patent US4894377A, “β-carbolines and their use as medicinal agents” (Schering Aktiengesellschaft, priority 1983, dated 1990):
≈ marks a conversion by molar mass, not a printed value.

Legend:
benzodiazepine receptors = experiment: displacement of specific binding of 3H flunitrazepam in vitro (rat cerebral membrane suspension); settings: 50% displacement of specific binding of 3H flunitrazepam (1.0 nM, 0° C.), rat cerebrum
[1] = tested on: convulsions induced by pentylenetetrazole (Pentazol); experiment: protection from convulsions and death induced by pentylenetetrazole (Pentazol); type: in vivo; settings: Mus musculus, ip; protects 50% of mice from convulsions and death; test compound intraperitoneal, 15-30 minutes before Pentazol
Protocol: (§1) The compounds of this invention show, in a pharmacological test, anxiolytic, antiagressive, and anticonvulsive activities. Two testing systems were employed to examine the anticonvulsive effect. The elimination of convulsions induced, on the one hand, by pentylenetetrazole (Pentazol) and, on the other hand, by 6,7-dimethoxy-4-ethyl-β-carboline-3-carboxylic acid methyl ester (DMCM) was examined. Pentazol and DMCM, respectively, are administered 15-30 minutes after intraperitoneal administration of the test compound in an amount of 15 mg/kg as an aqueous solution (pH 7) intraperitoneally and, respectively, in an amount of 150 mg/kg as a hydrochloric acid solution (pH 2-3) subcutaneously. These quantities induce clonic and tonic convulsions leading to death in untreated animals.
(§2) The ED50 values indicated in the table were determined according to the method by Litchfield and Wilcoxon (1949) as the amount of antagonistically active compound required to protect 50% of the animals from convulsions and death.

[2] = tested on: convulsions induced by 6,7-dimethoxy-4-ethyl-β-carboline-3-carboxylic acid methyl ester (DMCM); experiment: protection from convulsions and death induced by DMCM; type: in vivo; settings: Mus musculus, ip; protects 50% of mice from convulsions and death; test compound intraperitoneal, 15-30 minutes before DMCM
Protocol: as §1, §2

[3] = tested on: clonic convulsions at 111 dB; experiment: audiogenic seizure test; type: in vivo; settings: Mus musculus, ip, 0.5 h; dose at which 40% of mice show no convulsions at 111 dB (14 kHz); DBA/2 mice, intraperitoneal, 30 minutes prior
Protocol: The compounds of this invention also show a convulsion-relieving and/or convulsion-eliminating effect in the audiogenic seizure test. For this purpose, 18-21 day old male mice weighing 8-12 g (DBA/2 mice) receive intraperitoneally the compound to be tested as an ultrasound microsuspension in water/"Cremofor" EL (95:5) 30 minutes prior to testing. The animals are then exposed, in a soundproof wooden box (25×22×15 cm), to a sinusoidal sound of 14 kHz at 111 dB. The sound is generated immediately after transferring the animal into the box. Occurrence of clonic convulsions is recorded for 30 seconds. The ED50 value in the table indicates the dose at which 40% of the mice show no convulsions at 111 dB (80% of the control mice show convulsions at 111 dB).

Row | SMILES | IC50 (in vitro) (benzodiazepine receptors) | ED50 [1] | ED50 [2] | ED50 [3]
1 | CCOC(=O)c1ncc2[nH]c3cccc(OCc4ccc(C)c(C)c4)c3c2c1COC [3,4-dimethyl, 5-(3,4-dimethylbenzyloxy)-4-methoxymethyl-β-carboline-3-carboxylic acid ethyl ester] | 1.7 ng/mL (≈ 4.06 nM) | 30 mg/kg |  | 
2 | CCOC(=O)c1ncc2[nH]c3cccc(OCc4cccc(Br)c4)c3c2c1COC [Substituent 3-bromo, 5-(3-bromobenzyloxy)-4-methoxymethyl-β-carboline-3-carboxylic acid ethyl ester] | 0.8 ng/mL (≈ 1.7 nM) | 6 mg/kg |  | 
3 | CCOC(=O)c1ncc2[nH]c3cccc(OCc4ccc(Cl)cc4)c3c2c1COC [Substituent 4-chloro, 5-(4-chlorobenzyloxy)-4-methoxymethyl-β-carboline-3-carboxylic acid ethyl ester] | 0.9 ng/mL (≈ 2.12 nM) | > 30 mg/kg |  | 
4 | CCOC(=O)c1ncc2[nH]c3cccc(OCc4cccc(OC)c4)c3c2c1COC [Substituent 3-methoxy, 5-(3-methoxybenzyloxy)-4-methoxymethyl-β-carboline-3-carboxylic acid ethyl ester] | 0.5 ng/mL (≈ 1.19 nM) | > 100 mg/kg |  | 
5 | CCOC(=O)c1ncc2[nH]c3cccc(OC(C)c4ccccc4)c3c2c1COC (stereo not drawn) [α-methyl] | 1.1 ng/mL (≈ 2.72 nM) | 3 mg/kg | 0.1 mg/kg | 0.01 mg/kg
6 | CCOC(=O)c1ncc2[nH]c3cccc(OCCCc4ccccc4)c3c2c1COC | 1.9 ng/mL (≈ 4.54 nM) | 30 mg/kg | 5.5 mg/kg | 
7 | CCOC(=O)c1ncc2[nH]c3cccc(OC(C)c4cccc(Cl)c4)c3c2c1COC (stereo not drawn) [α-methyl, 3-chloro, 5-[1-(3-chlorophenyl)ethoxy]-4-methoxymethyl-β-carboline-3-carboxylic acid ethyl ester] | 4.3 ng/mL (≈ 9.8 nM) | 2 mg/kg |  | 
8 | CCOC(=O)c1ncc2[nH]c3cccc(OCc4ccc(F)cc4)c3c2c1COC [Substituent 4-fluoro, 5-(4-fluorobenzyloxy)-4-methoxymethyl-β-carboline-3-carboxylic acid ethyl ester] | 0.4 ng/mL (≈ 0.979 nM) | 30 mg/kg | 0.1 mg/kg | 0.2 mg/kg
9 | CCOC(=O)c1ncc2[nH]c3cccc(OCc4ccccc4)c3c2c1COC | 2 ng/mL (≈ 5.12 nM) | 15 mg/kg | 0.6 mg/kg | 0.5 mg/kg
10 | CCOC(=O)c1ncc2[nH]c3cccc(OCc4ccc(C)cc4)c3c2c1COC [Substituent 4-methyl, 5-(4-methylbenzyloxy)-4-methoxymethyl-β-carboline-3-carboxylic acid ethyl ester] | 0.9 ng/mL (≈ 2.23 nM) | 30 mg/kg |  | 
11 | CCOC(=O)c1ncc2[nH]c3cccc(OCc4cccc(F)c4)c3c2c1COC [Substituent 3-fluoro, 5-(3-fluorobenzyloxy)-4-methoxymethyl-β-carboline-3-carboxylic acid ethyl ester] | 0.3 ng/mL (≈ 0.735 nM) | 12 mg/kg | 0.3 mg/kg | 0.05 mg/kg
12 | CCOC(=O)c1ncc2[nH]c3cccc(OCc4ccc(Cl)c(Cl)c4)c3c2c1COC [3,4-dichloro, 5-(3,4-dichlorobenzyloxy)-4-methoxymethyl-β-carboline-3-carboxylic acid ethyl ester] | 2.1 ng/mL (≈ 4.57 nM) | 6 mg/kg | 2.2 mg/kg | 
13 | CCOC(=O)c1ncc2[nH]c3cccc(OCc4ccc([N+](=O)[O-])cc4)c3c2c1COC [Substituent 4-nitro, 5-(4-nitrobenzyloxy)-4-methoxymethyl-β-carboline-3-carboxylic acid ethyl ester] | 0.2 ng/mL (≈ 0.459 nM) | > 50 mg/kg |  | 
14 | CCOC(=O)c1ncc2[nH]c3cccc(OCc4cccc(Cl)c4)c3c2c1COC [Substituent 3-chloro, 5-(3-chlorobenzyloxy)-4-methoxymethyl-β-carboline-3-carboxylic acid ethyl ester] | 1.4 ng/mL (≈ 3.3 nM) | 0.9 mg/kg | 0.3 mg/kg | 0.08 mg/kg
15 | CCOC(=O)c1ncc2[nH]c3cccc(OCc4cccc(C(F)(F)F)c4)c3c2c1COC [3-trifluoromethyl, 5-(3-trifluoromethylbenzyloxy)-4-methoxymethyl-β-carboline-3-carboxylic acid ethyl ester] | 1.4 ng/mL (≈ 3.05 nM) | 12 mg/kg |  | 
16 | CCOC(=O)c1ncc2[nH]c3cccc(OCc4ccccc4F)c3c2c1COC [Substituent 2-fluoro, 5-(2-fluorobenzyloxy)-4-methoxymethyl-β-carboline-3-carboxylic acid ethyl ester] | 0.3 ng/mL (≈ 0.735 nM) | 13 mg/kg | 0.4 mg/kg | 0.05 mg/kg
17 | CCOC(=O)c1ncc2[nH]c3cccc(OCCc4ccccc4)c3c2c1COC | 0.8 ng/mL (≈ 1.98 nM) | 40 mg/kg |  | 
